This note sets out measurements from ChEMBL document CHEMBL1201862, “PubChem BioAssay data set” (2004).

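Five compound concentrations were applied to cells in 96-well plates for 48 hours; endpoints were derived by simple linear interpolation of the resulting dose-response curve. Here, GI50 denotes the concentration required for 50% inhibition of growth.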 Activity calls are given as the source filed them. Cut-off read from the data, not from the text of the source: active = GI50 up to about 1.1 µM and inactive = higher.

Test systems include Malme-3M; BT-549; A549; KM12; SK-MEL-28; UO-31; EKVX; RXF 393; MCF7; Hs-578T; ACHN; OVCAR-8; SN12C; NCI-H23; HCC 2998; OVCAR-5; CAKI-1; SK-MEL-2; MDA-MB-435; SNB-75.
Test in all cases: NCI anticancer screen, dose series, 48 h

For the molecule `Cc1[nH]c(C)c(CN(C)C)c1CN(C)C`, the GI50 in the test on Malme-3M, in the test with BT-549, with A549, in the test with KM12, in the test with SK-MEL-28 and with UO-31 was > 100 µM (inactive) in each case. Further, the GI50 with EKVX, in the test with RXF 393, in the test on MCF7, in the test on Hs-578T, in the test with ACHN and with OVCAR-8 was > 100 µM (inactive) each time. Further, the GI50 with SN12C, in the test on NCI-H23, with HCC 2998, in the test on OVCAR-5, in the test on CAKI-1 and with SK-MEL-2 was > 100 µM (inactive) each time. In the test with MDA-MB-435, the GI50 is > 100 µM (inactive).
For `CC(=N/NC(N)=S)/C(C)=N/NC(N)=S`, the GI50 with Malme-3M, in the test on BT-549, in the test with A549, in the test with KM12, in the test on SK-MEL-28 and with UO-31 was > 100 µM (inactive) in each case. Moreover, the GI50 in the test with EKVX, with RXF 393, in the test with MCF7, in the test on SNB-75, in the test with Hs-578T and in the test with ACHN was > 100 µM (inactive) in each case. Also, the GI50 with OVCAR-8, in the test with SN12C, in the test with NCI-H23, in the test on HCC 2998, in the test with OVCAR-5 and in the test with SK-MEL-2 was > 100 µM (inactive) in each case. In the test with MDA-MB-435, the GI50 was > 100 µM (inactive).
As to `CCCCCCOc1ccc(C(=O)NOC)cc1`, the GI50 in the test on BT-549 was 82.8 µM (inactive); with A549, 66.7 µM (inactive); with KM12, > 100 µM (inactive); with SK-MEL-28, > 100 µM (inactive); in the test with UO-31, 30.3 µM (inactive); in the test on EKVX, > 100 µM (inactive). In addition, the GI50 in the test on RXF 393, in the test on MCF7, in the test on SNB-75, in the test on Hs-578T, in the test with ACHN and with OVCAR-8 was > 100 µM (inactive) throughout. In addition, the GI50 was > 100 µM (inactive) in the test with SN12C; > 100 µM (inactive) in the test with NCI-H23; > 100 µM (inactive) in the test on HCC 2998; > 100 µM (inactive) with OVCAR-5; 96.8 µM (inactive) in the test with CAKI-1; > 100 µM (inactive) in the test with SK-MEL-2. Besides, the GI50 in the test with MDA-MB-435 is > 100 µM (inactive).
Take `CCN(CC)CCCC(C)Nc1cc(/C=C/c2ccc(Cl)cc2)nc2cc(N(C)C)ccc12` (stereo unspecified): the GI50 in the test with BT-549 is 1.65 µM (inactive); with A549, 2.25 µM (inactive); in the test with KM12 it was 1.7 µM (inactive); with SK-MEL-28, 1.74 µM (inactive); with UO-31 it was 2.04 µM (inactive); in the test with EKVX it was 1.73 µM (inactive). Further, the GI50 in the test with RXF 393 is 1.61 µM (inactive); in the test with MCF7, 1.34 µM (inactive); with Hs-578T, 2.37 µM (inactive); in the test on ACHN, 2.11 µM (inactive); with OVCAR-8 it was 1.86 µM (inactive); with SN12C it was 1.8 µM (inactive). Further, the GI50 in the test with NCI-H23 was 1.76 µM (inactive); in the test on HCC 2998, 2.07 µM (inactive); in the test with OVCAR-5, 1.94 µM (inactive); in the test on MDA-MB-435, 1.67 µM (inactive).
With `COc1ccc2nc3cc([N+](=O)[O-])ccc3c(Nc3ccc(S(=O)(=O)NC(C)=O)cc3)c2c1`, the GI50 was > 100 µM (inactive) in the test on Malme-3M; > 100 µM (inactive) with BT-549; > 100 µM (inactive) in the test on A549; > 100 µM (inactive) in the test with SK-MEL-28; 73.6 µM (inactive) with UO-31; 85.3 µM (inactive) in the test on EKVX. The GI50 in the test with RXF 393 was > 100 µM (inactive); with MCF7 it was 30.8 µM (inactive); in the test on Hs-578T it was 85.9 µM (inactive); in the test on ACHN it was 88.1 µM (inactive); in the test with SN12C, > 100 µM (inactive); in the test on NCI-H23, > 100 µM (inactive). Besides, the GI50 with HCC 2998 was 56.6 µM (inactive); in the test with OVCAR-5, > 100 µM (inactive); in the test on CAKI-1 it was > 100 µM (inactive); with SK-MEL-2, > 100 µM (inactive); in the test with MDA-MB-435, 76.4 µM (inactive).
In the case of `CC(C)(C)OC(=O)N(CCCCNC(=O)c1ccccc1)CCCNC(=O)c1ccccc1`, the GI50 with BT-549 was > 100 µM (inactive); with A549 it was > 100 µM (inactive); in the test on KM12, > 100 µM (inactive); in the test on SK-MEL-28, > 100 µM (inactive); in the test on UO-31, 90.6 µM (inactive); in the test with EKVX it was > 100 µM (inactive). Besides, the GI50 in the test on RXF 393, with MCF7, with SNB-75, in the test on Hs-578T, with ACHN and in the test with OVCAR-8 was > 100 µM (inactive) in each case. Besides, the GI50 in the test with SN12C, in the test on NCI-H23, with HCC 2998, with OVCAR-5, with CAKI-1 and in the test with SK-MEL-2 was > 100 µM (inactive) each time. Besides, the GI50 in the test with MDA-MB-435 is > 100 µM (inactive).
As to `BrCC[P+](c1ccccc1)(c1ccccc1)c1ccccc1`, the GI50 was 14.9 µM (inactive) with BT-549; 1.91 µM (inactive) in the test on A549; 4.8 µM (inactive) in the test on KM12; 4.89 µM (inactive) in the test with SK-MEL-28; 4.75 µM (inactive) in the test on UO-31; 0.792 µM (active) in the test with EKVX. The GI50 in the test on RXF 393 is 2.43 µM (inactive); in the test with MCF7 it was 13.5 µM (inactive); with SNB-75, 3.23 µM (inactive); with Hs-578T, 20.4 µM (inactive); with ACHN it was 3.18 µM (inactive); in the test with OVCAR-8, 3.1 µM (inactive). The GI50 in the test with SN12C was 1.98 µM (inactive); with HCC 2998 it was 9.42 µM (inactive); in the test with OVCAR-5, 10.8 µM (inactive); in the test with CAKI-1 it was 4.37 µM (inactive); with SK-MEL-2, 5.26 µM (inactive); in the test with MDA-MB-435, 2.84 µM (inactive).
Take `C=CC(=C)CCC(Br)C(C)(C)Br` (stereo unspecified): the GI50 was 41.2 µM (inactive) in the test with Malme-3M; > 100 µM (inactive) in the test on BT-549; > 100 µM (inactive) with A549; > 100 µM (inactive) with KM12; > 100 µM (inactive) in the test on SK-MEL-28; > 100 µM (inactive) with UO-31. Further, the GI50 in the test with EKVX was > 100 µM (inactive); in the test with RXF 393, > 100 µM (inactive); in the test with MCF7, 35.1 µM (inactive); in the test with SNB-75, > 100 µM (inactive); with Hs-578T, > 100 µM (inactive); with ACHN it was > 100 µM (inactive). Further, the GI50 with OVCAR-8, with SN12C, with NCI-H23, in the test with HCC 2998, with OVCAR-5 and with SK-MEL-2 was > 100 µM (inactive) in each case. Besides, in the test on MDA-MB-435, the GI50 is > 100 µM (inactive).
Turning to `O=c1cc(-c2cccnc2)[nH]c2cc3c(cc12)OCO3`, the GI50 in the test with Malme-3M was 3.15 µM (inactive); with BT-549 it was 30.3 µM (inactive); with A549, 19.2 µM (inactive); in the test with KM12 it was 3.77 µM (inactive); in the test with SK-MEL-28, 6.18 µM (inactive); in the test with UO-31 it was 44.4 µM (inactive). Besides, the GI50 in the test on RXF 393 was 9.02 µM (inactive); in the test with MCF7 it was 5.92 µM (inactive); in the test with SNB-75 it was 3.29 µM (inactive); in the test with Hs-578T it was 11.3 µM (inactive); in the test on ACHN it was 13.6 µM (inactive); in the test on OVCAR-8, 12.9 µM (inactive). In addition, the GI50 with SN12C is 12.2 µM (inactive); in the test on NCI-H23, 10.3 µM (inactive); in the test on HCC 2998, 7.4 µM (inactive); in the test on OVCAR-5, > 100 µM (inactive); in the test with SK-MEL-2 it was 8.04 µM (inactive); with MDA-MB-435, 1.84 µM (inactive).
Take `C=CCOC(=O)C1C2OC3(C(C(=O)OC)=C2C(=O)OC)c2ccccc2CCC13` (stereo unspecified): the GI50 with Malme-3M, with BT-549, in the test on A549, with KM12, with SK-MEL-28 and with UO-31 was > 10 µM (inactive) in each case. The GI50 in the test with EKVX, with RXF 393, in the test with MCF7, in the test on Hs-578T, in the test on ACHN and in the test with OVCAR-8 was > 10 µM (inactive) each time. For the same molecule, the GI50 in the test on SN12C, in the test on NCI-H23, in the test on HCC 2998, in the test on OVCAR-5, in the test on CAKI-1 and in the test with SK-MEL-2 was > 10 µM (inactive) throughout. The GI50 in the test with MDA-MB-435 is > 10 µM (inactive).
Consider `COc1c(O)cc2oc(-c3ccc(O)cc3)cc(=O)c2c1O` [HISPIDULIN], for which the GI50 with Malme-3M was 74.8 µM (inactive); in the test with BT-549, 28.3 µM (inactive); with A549, 35.5 µM (inactive); in the test with KM12 it was 31.5 µM (inactive); in the test with SK-MEL-28 it was 45.7 µM (inactive); in the test with UO-31, 25.1 µM (inactive). The GI50 with EKVX was 8.07 µM (inactive); with RXF 393, 51.5 µM (inactive); with MCF7 it was 52 µM (inactive); in the test on SNB-75 it was 17.3 µM (inactive); with Hs-578T it was 18.9 µM (inactive); in the test on ACHN, 26.8 µM (inactive). Also, the GI50 in the test on SN12C was 39.4 µM (inactive); with NCI-H23 it was 42.2 µM (inactive); in the test on HCC 2998, 28.7 µM (inactive); with OVCAR-5, 75.2 µM (inactive); in the test with SK-MEL-2 it was 27.2 µM (inactive); with MDA-MB-435, 36.3 µM (inactive).
